Results reported in the NIST ThermoML archive (doi:10.1021/je100615j).
Numbers after ± are expanded uncertainties.

Assay: mn = molality of the nth substance listed, in mol/kg
Details: 101.3 kPa, Liquid, Vibrating tube method

O=[N+]([O-])[O-].O=[N+]([O-])[O-].O=[N+]([O-])[O-].[Y+3] [yttrium nitrate] + O
mass density [kg/m3]
Details	m1 = 0.4989	m1 = 0.9965	m1 = 1.497	m1 = 1.982	m1 = 2.947	m1 = 3.945	m1 = 4.957
293.15 K	1105.5 ± 0.6	1202.6 ± 1.2	1290.8 ± 1.8	1368.7 ± 2.5	1502.8 ± 3.9	1615.7 ± 5.4	1708.9 ± 7
298.15 K	1103.5 ± 0.6	1200.2 ± 1.2	1287.8 ± 1.8	1365.4 ± 2.4	1498.9 ± 3.9	1611.4 ± 5.4	1704.3 ± 6.9
308.15 K	1099.2 ± 0.6	1194.7 ± 1.2	1281.4 ± 1.8	1358.2 ± 2.4	1490.5 ± 3.8	1602.2 ± 5.4	1694.7 ± 6.9

O=[N+]([O-])[O-].O=[N+]([O-])[O-].O=[N+]([O-])[O-].[Nd+3] [neodymium(III) nitrate] + O
mass density [kg/m3]
Details	m1 = 0.522	m1 = 1.021	m1 = 1.555	m1 = 2.093	m1 = 3.086	m1 = 4.124	m1 = 4.297
293.15 K	1136.1 ± 0.8	1255.1 ± 1.5	1369.8 ± 2.4	1474.7 ± 3.4	1642.1 ± 5.4	1785.9 ± 7.6	1807 ± 8
298.15 K	1134.2 ± 0.8	1252.5 ± 1.5	1366.7 ± 2.4	1471.1 ± 3.4	1637.8 ± 5.4	1781.1 ± 7.6	1802.7 ± 8
308.15 K	1129.6 ± 0.8	1246.7 ± 1.5	1359.9 ± 2.3	1463.5 ± 3.3	1628.8 ± 5.3	1771.4 ± 7.5	1792.8 ± 7.9

O=[N+]([O-])[O-].O=[N+]([O-])[O-].O=[N+]([O-])[O-].[Ce+3] [cerium nitrate] + O
mass density [kg/m3]
Details	m1 = 0.5112	m1 = 1.031	m1 = 1.555	m1 = 1.997	m1 = 3.131	m1 = 3.968	m1 = 4.462
293.15 K	1131.2 ± 0.8	1252.8 ± 1.5	1361.9 ± 2.3	1446.2 ± 3.1	1633.2 ± 5.4	1746.4 ± 7.1	1806 ± 8.1
298.15 K	1129.3 ± 0.8	1250.2 ± 1.5	1358.8 ± 2.3	1443.1 ± 3.1	1629.1 ± 5.4	1742.4 ± 7.1	1801.8 ± 8.1
308.15 K	1124.7 ± 0.7	1244.4 ± 1.5	1352 ± 2.3	1435.7 ± 3.1	1620.5 ± 5.3	1733.1 ± 7	1792.2 ± 8
